Data reported in patent US6204284A, “Use of 1-(substitutedphenyl)-3-azabicyclo[3.1.0]hexanes for the treatment of chemical dependencies” (priority 1995, dated 2001).
“Also recorded” adds a separate entry of the source.

Assays:
[1] = tested on: Norepinephrine (NE) reuptake in rat brain synaptosomes; experiment: Inhibition of rat synaptosomal uptake of 3H-norepinephrine; type: biochemical; conditions: rat diencephalic-mid brain crude synaptosomes; 3H-NE 2×10^-8 M; Hill analysis
From the text: (§1) Male Wistar rats weighing approximately 180-200 g are decapitated and their brains rapidly removed and dissected according to the method of Glowinski and Iversen. Glowinski, J. and Iversen, L. L., Regional studies of catecholamines in the rat brain I. The disposition of 3H-norepinephrine, 3H-dopamine and 3H-DOPA in various regions of the brain. J. Neurochem. 13:655-669, 1966.
(§2) Striatal tissues are pooled from three rat brains for the uptake of 3H-dopamine (3H-DA) and diencephalic-mid brain areas were used for the uptake of 3H-norepinephrine (3H-NE) and 3H-serotonin (3H-5HT). The tissues are immediately weighed and homogenized with a teflon-glass pestle homogenizer in 10 volumes of ice cold 0.32 M sucrose. The homogenates are centrifuged at 4° C. at 900×g for 10 minutes to remove nuclear particles and cellular debris. The supernatants are carefully withdrawn and transferred into clean test tubes kept in ice. Aliquots of these preparations containing crude synaptic nerve endings are used in subsequent uptake studies.
(§3) Amine uptake in crude synaptosomes is determined by a method essentially the same as that described by Snyder and Coyle, Snyder, S. H. and Coyle, J. T. Regional differences in 3H-norepinephrine and 3H-dopamine uptake into rat brain homogenates. J. Pharmacol. Exp. Ther. 165:78-86, 1969. Briefly, a 0.1 ml aliquot of the above tissue preparation is added to test tubes containing 3.7 ml of Krebs-Ringer phosphate buffer pH 7.4 with glucose (2 mg/ml), calcium chloride 0.024%, ascorbic acid (0.2 mg/ml) and nialamide (1.24×10^-5M). 1-(3,4-Dichlorophenyl)-3-azabicyclo[3.1.0]hexane hydrochloride at varying concentrations (0.01-2.5 μM) is added in a 0.1 ml volume. The incubation mixtures are agitated at 37° C. for 10 minutes under an atmosphere of 95% oxygen and 5% CO2 in a Dubnoff metabolic shaker to ensure irreversible inhibition of monoamine oxidase (MAO). After this initial pre-incubation period, the tubes are returned to the ice bath. 3H-DA, 3H-NE or 3H-5HT is added in a 0.1 ml volume to give a final concentration of labeled amine of 2×10^-8 M, and the incubation at 37° C. is continued for an additional 4 min. A set of tubes serving as control (uptake at 0° C.) is left in an ice bath. After the final incubation period, the samples are cooled in ice and then centrifuged at 4° C. at 10,000×g. The supernatant fluid is gently poured off from each tube. The surface of the pellet of each sample is washed with 5 ml of ice cold 0.9% sodium chloride which is then aspirated off without disturbing the pellet. The pellet is resuspended in a cintillation fluid ad radioactivity was determined. Protein content in the tissue samples is determined by the method of Lowry et al. Lowry, O. H., Rosebrough, N. J., Farr, A. L. and Randall, R. J. Protein measurement with the folin reagent. J. Biol. Chem. 193:265, 1951. The concentration of drug which inhibits the uptake of the labeled amine by 50% is determined by Hill analysis of the data.

[2] = tested on: Serotonin (5-HT) reuptake in rat brain synaptosomes; experiment: Inhibition of rat synaptosomal uptake of 3H-serotonin; type: biochemical; conditions: rat diencephalic-mid brain crude synaptosomes; 3H-5HT 2×10^-8 M; Hill analysis
From the text: as §1, §2, §3

Male Wistar rats [3] = experiment: Free-choice ethanol (6% v/v) vs tap water drinking, Part II; type: in vivo, rat; conditions: for Ethanol Intake / Ethanol Preference / Food Consumption / Total Fluid Intake: mean ± S.D.
Description: (§4) Male Wistar rats are presented with an everyday free-choice between a 6% (v/v) ethanol solution and tap water. Following a seven-day baseline period, which establishes a pattern of stable drinking, only those animals whose consumption is greater than 50% of their total fluid intake are given intraperitoneal injections of three drugs. In part I citalopram (positive control) a neuronal serotonin uptake inhibitor at a dose of 30 mg/kg, […], and 1-(3,4-dichlorophenyl)-3-azabicyclo[3.1.0]hexane hydrochloride, also a serotonin uptake inhibitor, at doses of 5, 10 and 20 mg/kg are given by intraperitoneal injection for seven days. In part II, animals are given intraperitoneal injections of diazepam at a dose of 10 mg/kg and again the positive control used is citalopram at 30 mg/kg. Treatment period for part II also is over a seven-day period. Following the seven-day treatment period, a post-treatment period which lasted for an additional seven days is conducted where the animals are presented with a free choice between ethanol and water in order to determine the rate of recovery of ethanol drinking. During baseline, drug treatment and post-treatment periods, ethanol consumption by the rats is calculated in terms of daily ethanol preference ratio (volume of ethanol per volume of total daily fluid intake) and in terms of daily absolute of ethanol ingested (g/kg body weight).
(§5) Two hundred (200) drug-naive male Wistar rats obtained from the Canadian Breeding Farm Laboratories in Charles River Canada are used. All animals weigh between 180-200 g at the beginning of the experiment.
(§6) All animals are individually housed in stainless steel cages, in a room regulated for constant temperature, humidity and a 12-hour light/dark cycle (7:00 a.m.-7:00 p.m.). Each cage is equipped with two calibrated glass Richter tubes to deliver the fluids (ethanol and water) to the animals. All animals are presented with a free choice between ethanol and tap water throughout the experiment. The drinking vessels are randomly reversed in order to avoid bias generated by a position preference in the animals. In addition, Purina Rat Chow is made available throughout the experiment on an ad libitum basis.
(§7) At approximately the same time every day, 1300 h, the volume in mls of ethanol and tap water consumed by each animal is recorded. All tubes are then removed from the cages, rinsed and refilled with the appropriate fluids, i.e., ethanol solution and tap water. Also, all animals are weighed and their corresponding body weights recorded. At this time, additional food is provided.
(§8) Drugs used in part I are dissolved in Ringers solution to form the required doses. Drugs used in part II are suspended in a vehicle which consists of a 2% pre-boiled starch solution containing 5% polyethylene glycol 400 and tween 80 (1 drop/10 ml vehicle). All drugs are administered intraperitoneally according to the schedule (see Treatment period).
Group 2--citalopram 30 mg/kg (n=7)
Group 3--diazepam 10 mg/kg (n=7)
(§9) Post-treatment period:--Upon cessation of the drug treatment period, the animals are presented with a free choice between 6% ethanol and tap water for an additional 7 days in order to determine the rate of recovery of ethanol drinking.

Male Wistar rats [4] = experiment: Free-choice ethanol (6% v/v) vs tap water drinking, Part I; type: in vivo, rat; conditions: 30 mg/kg i.p. 7 days, mean ± S.D.
Description: as §4, §5, §6, §7, §8
Group 2--citalopram 30 mg/kg (n=10)
Group 3--1-(3,4-dichlorophenyl)-3-azabicyclo[3.1.0]hexane hydrochloride 5 mg/kg (n=10)
Group 4--1-(3,4-dichlorophenyl)-3-azabicyclo[3.1.0]hexane hydrochloride 10 mg/kg (n=10)
Group 5--1-(3,4-dichlorophenyl)-3-azabicyclo[3.1.0]hexane hydrochloride 20 mg/kg (n=10)
as §9

[5] = tested on: Dopamine (DA) reuptake in rat brain synaptosomes; experiment: Inhibition of rat synaptosomal uptake of 3H-dopamine; type: biochemical; conditions: rat striatal crude synaptosomes; 3H-DA 2×10^-8 M; Hill analysis
From the text: as §1
Striatal tissues are pooled from three rat brains for the uptake of 3H-dopamine (3H-DA) and diencephalic-mid brain areas were used for the uptake of 3H-norepinephrine (3H-NE) and 3H-serotonin (3H-5HT). The tissues are immediately weighed and homogenized with a teflon-glass pestle homogenizer in 10 volumes of ice cold 0.32 M sucrose. […]
Amine uptake in crude synaptosomes is determined by a method essentially the same as that described by Snyder and Coyle, Snyder, S. H. and Coyle, J. T. Regional differences in 3H-norepinephrine and 3H-dopamine uptake into rat brain homogenates. […] The pellet is resuspended in a cintillation fluid ad radioactivity was determined. Protein content in the tissue samples is determined by the method of Lowry et al. Lowry, O. H., Rosebrough, N. J., Farr, A. L. and Randall, R. J. Protein measurement with the folin reagent. […] The concentration of drug which inhibits the uptake of the labeled amine by 50% is determined by Hill analysis of the data.

[6] = 10 mg/kg i.p. 7 days, Baseline period
[7] = 10 mg/kg i.p. 7 days, Post-Treatment period
[8] = 10 mg/kg i.p. 7 days, Treatment period, 10 mg/kg
[9] = 10 mg/kg i.p. 7 days, Treatment period, listed as diazepam, 10 mg/kg
[10] = 30 mg/kg i.p. 7 days, Baseline period
[11] = 30 mg/kg i.p. 7 days, Baseline period, 30 mg/kg
[12] = 30 mg/kg i.p. 7 days, Baseline period, listed as citalopram, 30 mg/kg
[13] = 30 mg/kg i.p. 7 days, Post-Treatment period
[14] = 30 mg/kg i.p. 7 days, Treatment period, 30 mg/kg
[15] = 30 mg/kg i.p. 7 days, Treatment period, listed as citalopram, 30 mg/kg
[16] = Treatment period, listed as citalopram, 30 mg/kg

c1ccc(C23CNCC2C3)cc1 (racemic) [±H H]
IC50 [1]: 0.401 µM | IC50 [2]: 0.47 µM

CN1C(=O)CN=C(c2ccccc2)c2cc(Cl)ccc21 [Diazepam]
Ethanol Intake (Male Wistar rats [3]; [6]): 3.92 ± 1.75 g/kg body weight | Ethanol Preference (Male Wistar rats [3]; [6]): 73.21 ± 26.62% | Food Consumption (Male Wistar rats [3]; [6]): 21.24 ± 1.94 g/day | Total Fluid Intake (Male Wistar rats [3]; [6]): 4.6321 ± 0.4679 mL/h/kg | Ethanol Intake (Male Wistar rats [3]; [7]): 3.95 ± 1.91 g/kg body weight | Ethanol Preference (Male Wistar rats [3]; [7]): 72.15% | Food Consumption (Male Wistar rats [3]; [7]): 20.98 g/day | Total Fluid Intake (Male Wistar rats [3]; [7]): 4.6487 mL/h/kg | Ethanol Intake (Male Wistar rats [3]; [8]): 3.48 ± 1.51 g/kg body weight | Ethanol Preference (Male Wistar rats [3]; [8]): 72.76 ± 28.03% | Food Consumption (Male Wistar rats [3]; [8]): 20.75 ± 2.04 g/day | Total Fluid Intake (Male Wistar rats [3]; [8]): 4.126 ± 0.369 mL/h/kg | Ethanol Intake (Male Wistar rats [3]; [9]): no effect on ethanol intake; also recorded: no effect to attenuate voluntary ethanol consumption | Ethanol Preference (Male Wistar rats [3]; [9]): virtually no change | Food Consumption (Male Wistar rats [3]; [9]): no effect on food intake | Total Fluid Intake (Male Wistar rats [3]; [9]): does not affect total fluid intake

CN(C)CCCC1(c2ccc(F)cc2)OCc2cc(C#N)ccc21 (stereo not shown) [Citalopram]
Ethanol Intake (Male Wistar rats [3]; [10]): 4.86 ± 1.09 g/kg body weight | Food Consumption (Male Wistar rats [3]; [10]): 19.82 ± 1.87 g/day | Ethanol Preference (Male Wistar rats [3]; [11]): 86.16 ± 14.74% | Total Fluid Intake (Male Wistar rats [3]; [11]): 4.9042 ± 0.4583 mL/h/kg | Ethanol Preference (Male Wistar rats [3]; [12]): 86.16% | Total Fluid Intake (Male Wistar rats [3]; [12]): 4.9042 mL/h/kg | Ethanol Intake (Male Wistar rats [3]; [13]): 3.87 ± 1.91 g/kg body weight | Ethanol Preference (Male Wistar rats [3]; [13]): 68.90% | Food Consumption (Male Wistar rats [3]; [13]): 19.86 g/day | Total Fluid Intake (Male Wistar rats [3]; [13]): 4.7558 mL/h/kg | Ethanol Intake (Male Wistar rats [3]; [14]): 2.95 ± 1.59 g/kg body weight | Ethanol Preference (Male Wistar rats [3]; [14]): 69.17 ± 30.25% | Food Consumption (Male Wistar rats [3]; [14]): 14.20 ± 2.76 g/day | Total Fluid Intake (Male Wistar rats [3]; [14]): 3.616 ± 0.5479 mL/h/kg | Ethanol Intake (Male Wistar rats [3]; [15]): partial effect | Ethanol Preference (Male Wistar rats [3]; [15]): 69.17% | Food Consumption (Male Wistar rats [3]; [15]): 14.20 g/day | Total Fluid Intake (Male Wistar rats [3]; [15]): 3.616 mL/h/kg | Food intake lower than baseline level during treatment (Male Wistar rats [3]; 30 mg/kg i.p. 7 days, Treatment vs baseline): approximately 25% | Ethanol Intake (Male Wistar rats [4]; Baseline period): 4.49 ± 1.18 g/kg body weight | Ethanol Preference (Male Wistar rats [4]; Baseline period): 75.78 ± 18.09% | Food Consumption (Male Wistar rats [4]; Baseline period): 20.14 ± 1.71 g/day | Total Fluid Intake (Male Wistar rats [4]; Baseline period): 5.1746 ± 0.5146 mL/h/kg | Ethanol Intake (Male Wistar rats [4]; Post-Treatment period): 3.32 ± 1.86 g/kg body weight | Ethanol Preference (Male Wistar rats [4]; Post-Treatment period): 57.81 ± 32.23% | Food Consumption (Male Wistar rats [4]; Post-Treatment period): 21.47 ± 1.94 g/day | Total Fluid Intake (Male Wistar rats [4]; Post-Treatment period): 5.0612 ± 0.6242 mL/h/kg | Ethanol Intake (Male Wistar rats [4]; Treatment period): 2.34 ± 1.44 g/kg body weight | Ethanol Preference (Male Wistar rats [4]; Treatment period, 30 mg/kg): 61.06 ± 35.09% | Food Consumption (Male Wistar rats [4]; Treatment period, 30 mg/kg): 11.96 ± 3.56 g/day | Total Fluid Intake (Male Wistar rats [4]; Treatment period, 30 mg/kg): 3.446 ± 0.394 mL/h/kg | Ethanol Preference (Male Wistar rats [4]; [16]): slight but insignificant decrease in ethanol preference | Food Consumption (Male Wistar rats [4]; [16]): significant decrease in food consumption | Total Fluid Intake (Male Wistar rats [4]; [16]): 3.446 mL/h/kg

Cc1ccc(C23CNCC2C3)cc1 (single isomer, unassigned) [+H p-CH3]
IC50 [1]: 0.215 µM | IC50 [2]: 0.096 µM

Clc1ccc(C23CNCC2C3)cc1 (racemic) [±H p-Cl]
IC50 [1]: 0.274 µM | IC50 [2]: 0.169 µM

Clc1ccc(C23CNCC2C3)cc1 (single isomer, unassigned) [+H p-Cl]
IC50 [1]: 0.279 µM | IC50 [2]: 0.055 µM

COc1ccc(C23CNCC2C3)cc1Br (racemic) [±H 3-Br-4-OCH3]
IC50 [1]: 0.318 µM | IC50 [2]: 0.26 µM

Cc1ccc(C23CNCC2C3)cc1 (racemic) [±H p-CH3]
IC50 [1]: 0.741 µM | IC50 [5]: 2.36 µM | IC50 [2]: 0.137 µM

Fc1ccc(C23CNCC2C3)cc1 (racemic) [±H p-F]
IC50 [2]: 0.811 µM
